Legend:
[1] = molecular target: PKCδ C1b domain N7R/S10R/L20R triple mutant (Mus musculus, UniProt P28867, L250R/N237R/S240R); test: Competitive [20-3H]PDBu binding to GST-C1b domain, N7R/S10R/L20R
[2] = molecular target: PKCδ C1b domain P11R mutant (Mus musculus, UniProt P28867, P241R); test: Competitive [20-3H]PDBu binding to GST-C1b domain, P11R
[3] = test system: PKCδ C1b domain S10R mutant; format: binding
[4] = molecular target: PKCδ C1b domain N7R mutant (Mus musculus, UniProt P28867, N237R); test: Competitive [20-3H]PDBu binding to GST-C1b domain, N7R
PKCδ C1b domain N7R mutant, sequence (P28867 230-280 N237R): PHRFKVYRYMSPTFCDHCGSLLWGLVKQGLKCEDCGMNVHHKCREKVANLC

PKCδ C1b domain P11R mutant, sequence (P28867 230-280 P241R): as the sequence (P28867 230-280 N237R) above, with R8N, P12R counted along it
PKCδ C1b domain N7R/S10R/L20R triple mutant, sequence (P28867 230-280 N237R/S240R/L250R): as the sequence (P28867 230-280 N237R) above, with S11R, L21R counted along it

| SMILES | reduction in binding affinity with the triple mutant N7R/S10R/L20R compared to the wild-type [1] | binding to P11R weaker than to the wild-type δC1B domain [2] | binding to S10R compared to the wild-type δC1B domain [3] | binding to N7R weaker than to the wild-type δC1B domain [4] |
| --- | --- | --- | --- | --- |
| CC(C)CC(C/C=C1\CC(CO)(COC(=O)C(C)(CO)CO)OC1=O)CC(C)C (stereo not shown) [13-E] | no further loss of affinity | – | – | – |
| CCCC(=O)O[C@@H]1[C@@H](C)[C@@]2(O)[C@@H](C=C(CO)C[C@]3(O)C(=O)C(C)=C[C@@H]23)[C@@H]2C(C)(C)[C@]12OC(=O)CCC [PDBu, phorbol 12,13-dibutyrate] | – | about 5 fold | essentially the same | about 5 fold |

— PMC4310642 (Journal of Medicinal Chemistry, 2014)
